pIC50: −log10 of the molar value. Structures can show the parent of a compound that is named as a salt.
How the values were obtained:
NLRP3 = NLRP3 (Homo sapiens, UniProt Q96P20); assay: Human whole blood IL1β release assay (LPS + nigericin, AlphaLisa IL-1β); assay type: cell-based; design: Plate out 80 μl of whole blood containing 1βg/ml of LPS in 96-well, clear bottom cell culture plate; from tissue; host or cells: human whole blood from healthy donors, LPS-primed and nigericin-stimulated; conditions: NLRP3 inhibitory activity in human whole blood, IL-1β release, 10 μM nigericin, read-out: HWB IC50
[1] = PK protocol: pharmacokinetic parameters in male Sprague Dawley rats (intravenous or oral); assay type: in vivo; conditions: plasma, rat; for Vd: read-out: Vdss
Protocol: Pharmacokinetic parameters were determined in male Sprague Dawley rats (Charles River, UK, 250-350 g; or Vital River Laboratory Animal Technology Co Ltd, Beijing, China, 7-9 weeks old). Animals were individually housed during the study and maintained under a 12 h light/dark cycle.
For intravenous administration, compounds were formulated as a solution in water or DMSO:PBS [10:90] in 2 mL/kg dosing volume and administered via tail vein. For oral administration, compounds were formulated as a solution in DMSO:water [10:90] in 5 mL/kg dosing volume and administered orally.
Serial blood samples (about 120-300 μL) were taken from each animal at each of 8 time-points post dose (0.083, 0.25, 0.5, 1, 2, 4, 8 and 24 h) or at each of 12 time-points post dose (0.03, 0.1, 0.17, 0.25, 0.5, 1, 2, 4, 6, 8, 12 and 24 h) or pre-dose and at each of 9 time-points post dose (0.25, 0.5, 1, 2, 4, 6, 8, 12 and 24 h). Samples were held on ice for no longer than 30 minutes before centrifugation (10,000 rpm (8,385 g) for 3 minutes; or 5,696 rpm (3,000 g) for 15 minutes) for plasma generation. Plasma was frozen on dry ice prior to bioanalysis. PK parameters were generated from LC-MS/MS data using Dotmatics or Phoenix WinNonlin 6.3 software.

[2] = intravenous administration, 1 mg/kg

Chain of NLRP3 (Q96P20 whole entry): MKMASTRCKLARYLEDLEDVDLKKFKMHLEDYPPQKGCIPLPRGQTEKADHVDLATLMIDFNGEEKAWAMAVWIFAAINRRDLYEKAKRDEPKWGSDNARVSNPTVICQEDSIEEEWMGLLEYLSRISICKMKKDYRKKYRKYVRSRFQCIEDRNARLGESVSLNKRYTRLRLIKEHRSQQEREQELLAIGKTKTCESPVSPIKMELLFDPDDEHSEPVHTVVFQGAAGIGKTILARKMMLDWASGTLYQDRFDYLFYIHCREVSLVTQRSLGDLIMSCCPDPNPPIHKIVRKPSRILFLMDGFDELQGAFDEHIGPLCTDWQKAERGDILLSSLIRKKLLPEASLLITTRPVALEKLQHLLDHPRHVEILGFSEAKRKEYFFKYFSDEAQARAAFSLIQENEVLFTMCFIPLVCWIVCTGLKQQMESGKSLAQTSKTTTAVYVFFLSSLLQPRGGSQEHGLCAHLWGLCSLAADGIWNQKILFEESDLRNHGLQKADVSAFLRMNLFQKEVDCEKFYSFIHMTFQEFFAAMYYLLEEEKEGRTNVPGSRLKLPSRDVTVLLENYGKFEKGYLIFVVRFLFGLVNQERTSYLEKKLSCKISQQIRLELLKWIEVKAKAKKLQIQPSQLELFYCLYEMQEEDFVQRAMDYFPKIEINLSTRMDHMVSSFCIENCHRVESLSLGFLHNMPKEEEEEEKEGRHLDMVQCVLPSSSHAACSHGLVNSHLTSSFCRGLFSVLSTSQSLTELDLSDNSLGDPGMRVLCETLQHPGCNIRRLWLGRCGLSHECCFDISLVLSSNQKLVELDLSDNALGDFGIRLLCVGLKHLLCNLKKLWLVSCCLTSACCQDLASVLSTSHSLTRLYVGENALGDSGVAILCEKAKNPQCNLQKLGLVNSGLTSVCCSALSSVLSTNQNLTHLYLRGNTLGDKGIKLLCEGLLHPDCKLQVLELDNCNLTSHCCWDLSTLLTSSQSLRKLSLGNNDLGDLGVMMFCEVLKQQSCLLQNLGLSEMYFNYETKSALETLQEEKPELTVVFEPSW

Row | pIC50 (NLRP3) | AUC [1, 2] | clearance [1, 2] | half-life [1, 2] | Vd [1, 2] | AUC ([1]; oral administration, 3 mg/kg) | CL/F ([1]; oral administration, 3 mg/kg) | Cmax ([1]; oral administration, 3 mg/kg) | Tmax ([1]; oral administration, 3 mg/kg) | bioavailability ([1]; oral administration, 3 mg/kg) | half-life ([1]; oral administration, 3 mg/kg) | Structure (SMILES)
1 | ≥ 6.00 | 2780 ng·h/mL | 6 mL/min/kg | 1.3 h | 0.53 L/kg | – | – | – | – | – | – | O=C(Nc1c2c(cc3c1CCC3)CCC2)NS(=O)(=O)CCN1CCC1 [Example 29, 2-(Azetidin-1-yl)-N-((1,2,3,5,6,7-hexahydro-s-indacen-4-yl)carbamoyl)ethane-1-sulfonamide, Potassium Salt]
2 | ≥ 6.00 | 591 ng·h/mL | 28.2 mL/min/kg | 0.9 h | 0.55 L/kg | – | – | – | – | – | – | CCN(CC)CCCS(=O)(=O)NC(=O)Nc1c(-c2cccnc2)cc(F)cc1C(C)C [Example 37, 3-(Diethylamino)-N-((4-fluoro-2-isopropyl-6-(pyridin-3-yl)phenyl)carbamoyl)propane-1-sulfonamide]
3 | ≥ 6.00 | 2350 ng·h/mL | 7.1 mL/min/kg | 1.1 h | 0.49 L/kg | – | – | – | – | – | – | CN(C)CCCS(=O)(=O)NC(=O)Nc1c2c(cc3c1CCC3)CCC2 [Example 8, 3-(Dimethylamino)-N-((1,2,3,5,6,7-hexahydro-s-indacen-4-yl)carbamoyl)propane-1-sulfonamide, potassium salt]
4 | ≥ 6.00 | 1180 ng·h/mL | 14.2 mL/min/kg | 1.5 h | 0.79 L/kg | 2270 ng·h/mL | 22.6 mL/min/kg | 819 ng/mL | 0.42 h | 64.1% | 1.8 h | CCN(CC)CCCS(=O)(=O)NC(=O)Nc1c2c(cc3c1CCC3)CCC2 [Example 3, 3-(Diethylamino)-N-((1,2,3,5,6,7-hexahydro-s-indacen-4-yl)carbamoyl)propane-1-sulfonamide, potassium salt]

From patent US20200331850A1, “NOVEL SULFONAMIDE CARBOXAMIDE COMPOUNDS” (Inflazome Limited, priority 2017, published 2020)
